According to article PMC10005264, “Computational Design, Synthesis, and Biophysical Evaluation of β-Amido Boronic Acids as SARS-CoV-2 M^pro Inhibitors” (Molecules, 2023):

Legend:
[1] = biological target: T1, His-tagged recombinant Mpro^CoV-2 (Severe acute respiratory syndrome coronavirus 2, UniProt P0DTD1); assay: microscale thermophoresis binding check; conditions: 50 nM labelled protein, PBS-T, 2.5% DMSO, 25 °C, 60-90 min incubation; tested concentration, not a Kd
T1 construct: gene rep
Text: microscale thermophoresis binding check on His-tagged recombinant Mpro^CoV-2

[2] = biological target: T2, recombinant Mpro^CoV-2 (SARS-CoV-2 M^pro) (Severe acute respiratory syndrome coronavirus 2, UniProt P0DTD1); assay: FRET peptide cleavage assay (Dabcyl-KTSAVLQSGFRKME-Edans); type: biochemical
T2 construct: gene rep
Text: FRET peptide cleavage assay (Dabcyl-KTSAVLQSGFRKME-Edans) on recombinant Mpro^CoV-2 (SARS-CoV-2 M^pro)

`CC(C)(C)NC(=O)CN(C(=O)CCCC(N)=O)[C@H](CB(O)O)c1ccccc1` [3f, (R)-(2-(5-Amino-N-(2-(tert-butylamino)-2-oxoethyl)-5-oxopentanamido)-2-phenylethyl)boronic Acid] was tested, and the “Ligand Concentration Displaying: / Binding” value [1] was 1 µM.
Work on `NC(=O)CCC(=O)N(CC(=O)NC1CCCCC1)[C@H](CB(O)O)c1ccccc1` [3a, (R)-(2-(4-Amino-N-(2-(cyclohexylamino)-2-oxoethyl)-4-oxobutanamido)-2-phenylethyl)boronic Acid] yielded an inhibition at 20 µM [2] of 23.4%.
`NC(=O)CCCC(=O)N(CC(=O)NCc1ccccc1)[C@@H](CB(O)O)c1ccccc1` [3eb, (S)-(2-(5-Amino-N-(2-(benzylamino)-2-oxoethyl)-5-oxopentanamido)-2-phenylethyl)boronic Acid] was tested, and the “Ligand Concentration Displaying: / Binding” value [1] was 3.1 µM.
`NC(=O)CCC(=O)N(CC(=O)NCc1ccccc1)[C@H](CB(O)O)c1ccccc1` [3c, (R)-(2-(4-Amino-N-(2-(benzylamino)-2-oxoethyl)-4-oxobutanamido)-2-phenylethyl)boronic Acid] was tested, and the “Ligand Concentration Displaying: / Binding” value [1] was 4 µM.
With `NC(=O)CCCC(=O)N(CC(=O)NCc1ccccc1)[C@H](CB(O)O)c1ccccc1` [3ea, (R)-(2-(5-Amino-N-(2-(benzylamino)-2-oxoethyl)-5-oxopentanamido)-2-phenylethyl)boronic Acid] the inhibition at 20 µM [2] was 23.7%.
